Earlier results in paper PMC5572576 (The Lancet. Oncology, 2017).
Where two headings read alike, the source gives them in different places.

Experiments:
patients with R/R AML [1] = settings: cited from earlier work
patients with R/R AML [2] = settings: cited from earlier work; remark: listed apart in the source
[3] = test system: patients with newly diagnosed AML aged <60 years; settings: added to intensive chemotherapy; cited from earlier work

## CO[C@@H]1[C@H](N(C)C(=O)c2ccccc2)C[C@H]2O[C@]1(C)n1c3ccccc3c3c4c(c5c6ccccc6n2c5c31)C(=O)NC4 [midostaurin]
Patients with R/R AML [1]
  CR: CR was not achieved
Patients with R/R AML [1]; patients with FLT3WT
  Patients with a reduction in blast counts: 42%
Patients with R/R AML [1]; patients with FLT3 mutations
  Patients with a reduction in blast counts: 71%

## CC(C)(C)c1cc(NC(=O)Nc2ccc(-c3cn4c(n3)sc3cc(OCCN5CCOCC5)ccc34)cc2)no1 [quizartinib]
Patients with R/R AML [2]; FLT3-ITD subgroup
  Median OS: 18 weeks
Patients with R/R AML [2]; entire study population
  Median OS: 14 weeks

## CNC(=O)c1cc(Oc2ccc(NC(=O)Nc3ccc(Cl)c(C(F)(F)F)c3)cc2)ccn1 [sorafenib]
[3]
  3-year event-free survival (EFS) rate: 40%
